One assay deals with human somatic cells. Briefly: hCiPSC colonies at the end of reprogramming after withdrawing individual chemicals from stage I or II. Format: cell-based. As to conditions: factor removed. Here is the method:
Cells were maintained at 37° C. with 21% 02 and 5% CO2. The induction medium was changed every 3-4 days. HEFs were seeded at a density of 1-1.5×10^4 cells per well of a 12-well plate in 15%. FBS-DMEM medium. Change the medium into stage I induction medium on the next day. For stage I induction, single layer epithelial-like cells would emerge at day 4-6 and approach 80%-100% confluence at day 8-12, then change the medium into stage II induction medium. For stage II induction, multi-layered colonies appeared after 8-12 days treatment and these cell colonies would continually grow larger. After totally 16-20 days' stage II treatment, change the medium into stage III condition. For stage III induction, 8-12 days treatment of stage III medium is required and then change the medium into stage IV condition. For stage IV induction, VPA (500 μM) was included in the first 4 days. Primary hCiPSC colonies would emerge after 6-8 days' treatment. At the end of stage IV, immunofluorescent staining of co-expression of OCT4 and NANOG was used to confirm the generation of primary hCiPSC colonies. Primary hCiPSC colony number was calculated as the number of the compact OCT4 positive colonies. Reprogramming efficiency was calculated as the number of primary hCiPSC colonies divided by the number of input HEFs.
In several experiments, to testing the reprogramming efficiency after removing each small molecules, the indicated small molecules were removed from the cocktails. The concentration of the small molecules used to regulate the same pathway or targets were indicated as follow: GSK3 inhibitors (CHIR99021: 3-15 μM; TD114-2: 0.5-2 μM; CHIR98014: 1-3 μM; GSK3βi XV: 0.05-0.2 μM); RA pathway agonists (TTNPB: 0.5-10 μM; Ch55: 1-5 μM; AM580: 0.1-1 μM); Rock inhibitors (TZV: 2-10 μM; Y27632: 2-15 μM; Fasudil: 2-10 μM; HA1100: 2-10 μM); TGFβ inhibitors (A8301: 0.1-5 μM; SB431542: 2-50 μM; LY364947: 0.5 μM; LY21: 0.5 μM; 616452: 10 μM).
In several experiments, to testing the reprogramming efficiency after regulate each small molecules, the indicated small molecules were removed from the cocktails. The concentration of the small molecules used to targeting the same pathway or targets were indicated as follow: GSK3 inhibitors (CHIR99021: 3-15 μM; TD114-2: 0.5-2 μM; CHIR98014: 1-3 μM; GSK3βi XV: 0.05-0.2 μM); TGFβ inhibitors (A8301: 0.2-5 μM; SB431542: 2-50 μM; 616452: 10 μM); RA pathway agonists (TTNPB: 0.2-10 μM; Ch55: 1-10 μM; AM580: 0.1-1 μM); Rock inhibitors (Y27632: 2-15 μM; Fasudil: 2-10 μM; HA1100: 2-10 μM; TZV: 2-10 μM); Smoothened agonists (SAG: 0.2-2 μM; Purmorphamine: 0.5-2 μM; Hg-Ag1.5: 0.5-1 μM; Human shh: 20-200 μM); histone demethylation inhibitors (Tranylcypromine: 2-50 μM; GSK2879: 0.02-2 μM; LSD-C76: 0.2-5 μM; S2101: 0.5-5 μM; LSD-2D: 0.2-5 μM; RN-1: 0.2-5 μM); DNMT inhibitors (5-azaC: 2-15 μM; Decitabine: 0.5-10 μM; RG108: 0.5-10 μM); JNK inhibitors (JNK-in-8: 0.2-2 μM; JNK-in-5: 0.5-1 μM; JNK-in-7: 0.2-2 μM; JNK-in-12: 0.2-0.5 μM); CBP/p300 bromodomain inhibitor (SGC-CBP30: 0.5-2 μM; I-CBP112: 0.5-5 μM; GNE272: 0.5-5μM; GNE409:0.5-5μM); Menin-MLL interaction inhibitor (VTP50469: 0.5-2μM; MI3454: 0.5-2μM; WDR5-IN-4: 0.5-2μM).

For the next assay, the system named is DNA CpG methylation. Briefly: DNA methylation levels after withdrawing individual chemicals from stage II. Format: cell-based, human. The text has this: (§1) In several experiments, to testing the reprogramming efficiency after regulate each small molecules, the indicated small molecules were removed from the cocktails. […]
To perform alignments of bisulfite-treated reads correctly, the Bismark Bisulfite Mapper pipeline was followed. […] Sequence reads were similarly transformed and mapped to prepared genomes using Bowtie2 with parameters set by Bismark. […] In this way, the number of reads were obtained that supported methylation and the number of reads covering every CpG site, non-CpG sites were not considered in later analysis.
To identify the sites showing evidence of methylation, binomial test was performed to each site on these counts to test whether the methylation counts are beyond bisulfite non-conversion events. […] Methylation level for each CpG site passed the test was defined as the fraction of reads supporting methylation out of reads that cover the site (mCpG/CpG). […] The mean CpG methylation level of each sample was calculated as the fraction of all reads supporting CpG methylation out of reads that cover CpG site (all mCpG / all CpG).

The subject of assay [1] is cellular retinoic acid binding protein (CRABP). The settings on record: cited from earlier work.
The subject of a further assay is SALL4. Kind of assay: Withdrawing individual chemicals from stage II: SALL4 activation. Format: cell-based, human. As for the experimental part: as §1
Total RNA was isolated using Direct-zol RNA MiniPrep Kit (Zymo Research, R2053). cDNA was synthesized from 0.5-1 μg of total RNA using TransScript First-Strand cDNA Synthesis SuperMix (TransGen Biotech, AT311-03). qPCR was performed by using KAPA SYBR FAST qPCR Kit Master Mix (KAPA Biosystems, KM4101) on a CFX ConnectTM Real-Time System (Bio-Rad). The data were analyzed using the delta-delta Ct method. […]

The subject of assay [2] is genes that activated at stage II. Kind of assay: Withdrawing individual chemicals from stage II: plasticity signatures and chromatin accessibility. The assay is classed as cell-based, human. As for the experimental part: as §1
Approximately 5×10^4 cells of each sample were collected and washed once with cold PBS and re-suspended in 50 μL Lysis buffer (10 mM Tris-HCl PH7.4, 10 mM NaCl, 3 mM MgCl2, 0.5% NP-40). […] All ATAC libraries were sequenced on an Illumina Novaseq 6000 platform and 150 bp paired-end reads were generated. […]
Quality control was performed using FastQC to all samples. The raw ATAC-seq reads were trimmed using Trimmomatic with parameter ‘[…]:NexteraPE-PE.fa:2:30:7:1:true LEADING:3 TRAILING:3 SLIDINGWINDOW:4:15 MINLEN:36’ to remove detected adapters. Then the clean reads were mapped to human reference genome hg19 using Bowtie2 with parameter ‘—very-sensitive’. […] Duplicated reads were removed using MarkDuplicates function of Picard tools. Low quality mapped reads and reads mapped to mitochondrial were filtered using Samtools. […]
Overlapped peaks in different samples were merged and defined sample specific peak sets using R package ChIPpeakAnno. […] The ATAC signal strength around peak region or gene promoter region was quantified using Deeptools.

For the next assay, the system named is other human kinases. As to conditions: cited from earlier work.

Consider `Nc1ncn([C@@H]2O[C@H](CO)[C@@H](O)[C@H]2O)c(=O)n1` [5-Azacytidine], for which the “generation of hCiPSCs” value in the assay on human somatic cells is “greatly impaired”. Also, the “development of a hypo-methylated state” value in the assay on DNA CpG methylation was “required”.

Consider `CC(C)(C)c1cc(C(=O)/C=C/c2ccc(C(=O)O)cc2)cc(C(C)(C)C)c1` [Ch 55, 4-[(1E)-3-[3,5-bis(1,1-Dimethylethyl)phenyl]-3-oxo-1-propenyl]benzoic acid], for which the “affinity for CRABP” value in assay [1] is “low affinity”.

In the case of `Cc1cc(NC(=O)c2cccc(NC(=O)/C=C/CN(C)C)c2)ccc1Nc1nccc(-c2cccnc2)n1` [JNKIN8], the “generation of hCiPSCs” value in the assay on human somatic cells is “greatly impaired”. For the same molecule, in the assay with SALL4, the “activation of SALL4” value is given as “required”. Further, the “opened chromatin status of the genes activated at stage II” value in assay [2] (chromatin accessibility analysis) is on record as “essential”. Besides, the “acquisition of plasticity signatures” value in assay [2] (stage II) is given as “required”.

On to `CN(C)CCOc1ccc(-c2nc(-c3ccc4c(c3)CCC4=NO)c(-c3ccncc3)[nH]2)cc1` [SB590885, 5-[2-[4-[2-(Dimethylamino)ethoxy]phenyl]-5-(4-pyridinyl)-1H-imidazol-4-yl]-2,3-dihydro-1H-inden-1-one oxime], for which the “inhibition to other human kinases” value in the assay on other human kinases is reported as “no inhibition”.

The values are drawn from patent US20240182867A1, “CHEMICAL REPROGRAMMING OF HUMAN SOMATIC CELLS INTO PLURIPOTENT CELLS” (Peking University, priority 2021, published 2024).
